Key:
[1] = Hygroscopicity test (weight changes due to moisture absorption); type: physicochemical; conditions: exposed to humidity of 83% and 93% at 25° C. over 5 days; FIG. 1
Experimental: A hygroscopicity test was conducted on (lS,9S)-1-amino-9-ethyl-5-fluoro-2,3-dihydro-9-hydroxy-4-methyl-1H,12H-benzo[de]pyrano[3′,4′:6,7]indolizino[1,2-b]-quinoline-10,13(9H,15H)-dione•methanesulfonate•dihydrate according to the present invention and (1S,9S)-1-amino-9-ethyl-5-fluoro-2,3-dihydro-9-hydroxy-4-methyl-1H,12H-benzo[de]pyrano[3′,4′:6,7]indolizino[1,2-b]-quinoline-10,13(9H,15H)-dione-hydrochloride (control product).
Described specifically, each salt was exposed to high-humidity conditions of 83% and 93% at 25° C. Over a period of 5 days, its weight changes were investigated.

[2] = Color change on storage at high relative humidity, measured by a color difference meter; type: physicochemical; conditions: for color change observed on stored sample: stored at a high relative humidity
Experimental: The control product was stored at a relative humidity of 93% and the degree of a color change was measured.

[3] = stored for 0 month, relative humidity 93%
[4] = stored for 1 month, 25° C., relative humidity 93%
[5] = stored for 2 months, 25° C., relative humidity 93%

Row | Compound | weight changes due to moisture absorption (hygroscopicity) [1] | decomposition by moisture absorption (conclusion from color change) ([2]; stored at 25° C., relative humidity 93%) | color change observed on stored sample [2] | Color [2, 3] | Lab (chromaticity, brightness) [2, 3] | Color [2, 4] | Lab (chromaticity, brightness) [2, 4] | ΔE(H) (degree of a color difference) [2, 4] | Color [2, 5] | Lab (chromaticity, brightness) [2, 5] | ΔE(H) (degree of a color difference) [2, 5]
1 | CC[C@@]1(O)C(=O)OCc2c1cc1n(c2=O)Cc2c-1nc1cc(F)c(C)c3c1c2[C@@H](N)CC3.Cl [control product, (1S,9S)-1-amino-9-ethyl-5-fluoro-2,3-dihydro-9-hydroxy-4-methyl-1H,12H-benzo[de]pyrano[3′,4′:6,7]indolizino[1,2-b]-quinoline-10,13(9H,15H)-dione-hydrochloride] | high hygroscopicity and a fast weight change due to hygroscopicity | decomposes by moisture absorption | color change (yellowish brown—brown; originally: yellow) was observed | Yellow | 81.68-81.69 | brown-yellow | 74.96-75.23 | 7.16-7.38 | brown-yellow | 62.65-67.43 | 14.53-19.24
2 | CC[C@@]1(O)C(=O)OCc2c1cc1n(c2=O)Cc2c-1nc1cc(F)c(C)c3c1c2[C@@H](N)CC3 [methanesulfonate, (1S,9S)-1-Amino-9-ethyl-5-fluoro-2,3-dihydro-9-hydroxy-4-methyl-1H,12H-benzo[de]pyrano[3′,4′:6,7]-indolizino[1,2-b]quinoline-10,13(9H,15H)-dione•methanesulfonate•dihydrate] | a gradual and small change | – | No color change | – | – | – | – | – | – | – | –

From patent publication US6552197B2, “Condensed-hexacyclic compounds and a process therefor” (Daiichi Pharmaceutical Co., Ltd., priority 1995, dated 2003)
